For this experiment, the system named is isolated perfused rat hearts. Briefly: Langendorff isolated perfused rat heart. Particulars: FIGS. 4A-D and 5A-D. From the text:
To assess the hemodynamic cardiac function of the peptides, a Langendorff isolated heart system was used. The isolated heart from rat provides a broad spectrum of measurements that can include biochemical, metabolic, morphological and physiological indices. Although the system lacks neurohormonal influences, neural regulation and high coronary flows, the advantages of the system include the ability to study direct cardiac effects without systemic circulation and a host of peripheral interactions. This method can yield excellent dose-response relationships and provides critical insight into the pharmacological and physiological properties of the molecules of interest.
Animals were anesthetized through administration of 50-100 mg/kg dose of sodium pentobarbital via the intraperitoneal route. The heart was excised and gently cradled between fingers to avoid injury followed by lifting slightly before incising the aorta, vena cava and pulmonary vessels. Immediately after excision of the heart with aorta, the heart was mounted onto the cannula in the Langendorff apparatus via the aorta. […] The pressure was measured through a pressure sensing balloon catheter inserted in the left ventricular cavity. The intrinsic inotropy (force of muscle contraction) and lusitropy (cardiac relaxation) effects of the heart were assessed by dp/dtmax and dp/dtmin.

Non-standard residues stand in square brackets, D forms with d. Residues, ends and D or L forms follow the SMILES beside them. ξ: configuration not given here. dBip = N[C@H](Cc1ccc(-c2ccccc2)cc1)C(=O)O; Oic(3aξ,7aξ) = O=C(O)[C@@H]1CC2CCCCC2N1; Phe(4-I) = N[C@@H](Cc1ccc(I)cc1)C(=O)O; hArg = N=C(N)NCCCC[C@H](N)C(=O)O; NMeL = CN[C@@H](CC(C)C)C(=O)O

For `CC(=O)N[C@@H](CCC(N)=O)C(=O)N[C@@H](CCCCNC(=N)N)C(=O)N1CCC[C@H]1C(=O)N[C@H](CCCNC(=N)N)C(=O)N(C)[C@@H](CC(C)C)C(=O)N[C@@H](CO)C(=O)N[C@@H](Cc1c[nH]cn1)C(=O)N[C@@H](CCCCN)C(=O)NCC(=O)N1C2CCCCC2C[C@H]1C(=O)N[C@@H](Cc1ccc(I)cc1)C(=O)N1CCC[C@H]1C(=O)N[C@H](Cc1ccc(-c2ccccc2)cc1)C(=O)O` (stereo partly drawn) [SEQ ID NO: 53, {Acetyl-NH}Q[hArg]Pr[NMeLeu]SHKG[Oic][pI-Phe]P[D-Bip]{COOH}] (Ac-Q[hArg]P[dR][NMeL]SHKG[Oic(3aξ,7aξ)][Phe(4-I)]P[dBip]-OH), the “systolic and diastolic function in isolated perfused rat hearts” value was “dose-dependent improvement of both systolic and diastolic function”.

Turning to `CC(=O)N[C@@H](CCCCNC(=N)N)C(=O)N[C@H](CCCNC(=N)N)C(=O)N[C@@H](CCC(N)=O)C(=O)N[C@@H](CCCCNC(=N)N)C(=O)N1CCC[C@H]1C(=O)N[C@H](CCCNC(=N)N)C(=O)N(C)[C@@H](CC(C)C)C(=O)N[C@@H](CO)C(=O)N[C@@H](Cc1c[nH]cn1)C(=O)N[C@@H](CCCCN)C(=O)NCC(=O)N1C2CCCCC2C[C@H]1C(=O)N[C@@H](Cc1ccc(I)cc1)C(=O)N1CCC[C@H]1C(=O)N[C@H](Cc1ccc(-c2ccccc2)cc1)C(=O)O` (stereo partly drawn) [SEQ ID NO: 16, Acetyl-[hArg][r]Q[hArg]P[r][NMeLeu]SHKG[Oic][pI-Phe]P[D-Bip]{COOH}] (Ac-[hArg][dR]Q[hArg]P[dR][NMeL]SHKG[Oic(3aξ,7aξ)][Phe(4-I)]P[dBip]-OH), the “systolic and diastolic function in isolated perfused rat hearts” value is “dose-dependent improvement of both systolic and diastolic function”.

(Values after patent US11807693B2 (priority 2014, dated 2023).)
